# Patent US6566359B1, “2,4,6-trimethyl-1,4-dihydro-pyridine-3,5-dicarboxylic acid esters as neuroprotective drugs” (Board of Supervisors of Louisiana State University and …, priority 2002, dated 2003)
# pKd: −log10 of the molar value. Where a name gives a salt, the structure may show the parent alone.
# Tests used:
# [1] = known LD50; cited from earlier work
# human COX-2 promoter [2] = test: IL-1β-induced COX-2 promoter-luciferase transcription in CV-1 cells; type: cell-based; settings: 100 nM compound, 10 nM IL-1β
# Method: (§1) To test the ability of LAU-0900 series compounds to inhibit COX-2 expression, a kidney cell line was transiently transfected with the 830-base-pair human COX-2 promoter construct (proximal to the transcription start site) fused to the luciferase gene as a reporter as described below.
# (§2) Transfection of CV-1 cells with human COX-2promoterfused with LUC: C V-1 Cells (African green monkey kidney cell line, ATCC # CCL-17) were grown in DMEM-F12 (GIBCO-BRL, Rockville, Md.) supplemented with 10% FBS (fetal bovine serum) in 6-well plates. At 80% confluence, the cells were transfected with 10 μg human COX-2 promoter-LUC construct (containing 830 base pairs of the human COX-2 promoter (donated by Dr. Stephen Prescot, Huntsman Cancer Institute, Salt Lake City, Utah) using a liposomal transfection reagent (DOTAP, Roche Diagnostics, Gmbh, Mannheim, Germany). Promoterless β-galactosidase construct (Promega, Madison, Wis.) was co-transfected to assess transfection efficiency. Three hours after transfection at 37° C., the medium was removed, and the cells were washed with phonsphate-buffered saline solution, pH 7.2 (PBS; Gibco-BRL, Rockville Md. The plates were further incubated at 37° C. in complete medium DMEM-F12 with 10% FBS for about 8-10 hr. Before the addition of the inducers of COX-2, PAF (100 nM) or IL-1β (10 ng/ml), the CV-1-transfected cells were serum-starved for 8 hr at 37° C. After the addition of the inducers, the cells were incubated for 8-10 hr at 37° C. Then the medium was removed, the cells were washed with PBS, harvested, and frozen at −80° C. until used for assays.
# (§3) To test the effectiveness of the LAU-0900 series compounds, the transfected cells were treated for 1 hr with 100 nM of various LAU-0900 series compounds before the addition of the inducers (either PAF or IL-1β, and the LAU-0900 compound remained in the medium throughout the incubation period.
# (§4) Luciferase assay of transfected CV-1 cells: Frozen cells were homogenized in 300 μl luciferase assay buffer (“ALL”, Analytical Luminescence Laboratory, San Diego, Calif.), and cellular debris was collected as a pellet by centrifugation at 2800×g for 20 min at 4° C. Supernatants (20-30 μl) were normalized to 1 μg/ml of total protein content, and were mixed with 70-80 μl ALL buffer. Reactions were initiated by injection of 100 μl of 1 mM luciferin (Sigma Chemical Co., St. Louis, Mo.). The relative light units were determined by using an ALL luminometer that recorded over 20-second intervals.
# human COX-2 promoter [3] = test: PAF-induced COX-2 promoter-luciferase transcription in CV-1 cells; type: cell-based; settings: 100 nM compound, 100 nM PAF
# Method: as §1, §2, §3, §4
# [4] = target: T1, cell-surface-type PAF receptor over-expressed in CHO-B cells (Cavia porcellus, UniProt P21556); test: Competition for 3H-PAF binding to CHO-B cell homogenates; settings: CHO-B homogenates
# T1 construct: expressed in transfected cells; host or cells: Chinese hamster ovary cells: CHO-B (high expression) and CHO-A (mild expression), used as cell homogenates
# Method: (§5) Binding studies were performed on subcellular fractions of tissues obtained from rat brain cortex, according to procedures described in V. Marcheselli et al., “Distinct platelet-activating factor binding sites in synaptic endings and in intracellular membranes of rat cerebral cortex,” J. biol. Chem., vol. 265, pp. 9140-9145 (1990). Freshly dissected brain tissues were homogenized in ice-cold buffer (50 mM Tris-HCl, 2 mM EGTA, 5 mM PMSF, 250 mM sucrose, 7.4 pH). Subcellular fractions were obtained by differential centrifugation. The microsomal fraction was sedimented after 100,000×g for 1 hour centrifugation. In addition, three cell lines from Chinese hamster ovary (CHO) with varying expression of PAF receptors, CHO-A, CHO-B, and CHO-C cells (from Dr. Takao Shiizu, University of Tokyo, Tokyo, Japan) were cultured to the fourth-passage cells. These cells were cultured to confluence, then detached from their culturing flasks, and pelleted by rapid centrifugation (3,000 rpm, 10 min). Cellular pellets were homogenized in ice-cold buffer as described above. Freshly obtained microsomal fractions or CHO cellular homogenates were utilized for saturation, displacement, and competition studies using ^3H-PAF as the hot ligand, unlabeled-PAF to detect non-specific binding, and a LAU-0900 series compound to displace by competition ^3H-PAF bound to a receptor.
# (§6) See B. Liu et al., “Implication of protein kinase C alpha in PAF-stimulated phospholipase D Activation in Chinese hamster ovary (CHO) cells expressing PAF receptor,” Biochem. Biophys. Res. Commun., vol.214, pp.418-423 (1995). […] Both the constants of inhibition (KI) and 50% of inhibitory activity (IC50) were significant at a low concentration of LAU-0903.
# [5] = target: intracellular type PAF receptor (rat brain microsomal preparations) (Rattus norvegicus, UniProt P46002); test: Competition for 3H-PAF binding to rat brain cortex microsomal membranes; settings: rat brain microsomal
# Method: as §5
# [6] = tested on: CHO-C cells (do not exp PAF-R); test: Competition for 3H-PAF binding to CHO-C cell homogenates; settings: CHO-C homogenates
# Method: as §5, §6
# [7] = Middle cerebral artery occlusion (MCA-O) stroke model, infarct volume by TTC; type: in vivo, C57BL/6 mice
# [8] = tested on: c-jun aminoterminal protein kinase (JNK); test: PAF-mediated JNK activation in HEK-293 cells, immunocomplex kinase assay; type: cell-based, human; settings: PAF 100 nM
# Method: Experimental Protocol: HEK-293 cells (transformed primary human embryo kidney cells, ATCC# CRL-1573) were cultured to confluency in DMEM-10% FBS high-glucose medium (GIBCO-BRL, Rockville, Md). Cells were cultured in 6-well plates and were treated with PAF (100 nM) for 60 min or interleukin-1β (“IL-1β”; 10 ng/ml) for 30 min, and then frozen for later assays for JNK and ERK as described below. To test the effect of compounds of the LAU-0900 series, HEK-293 cells were treated for 30 min with various concentrations (from 10 nM to 1 μM) of the experimental LAU-0900 series compound before the addition of PAF or IL-1β. […]
# To measure the JNK activity, aliquots of 5 μg immunoprecipitates were incubated for 30 min at 30° C. using 10 μg GST-cJUN (Santa Cruz Biotechnology, Santa Cruz, Calif.) as substrate. […] The filter papers were washed twice with 10 mL per square 1% phosphoric acid, followed by one wash with water. ^32P on the filter paper was counted in a scintillation counter to quantify the phosphorylation of substrate proteins.
# ARPE-19 cells = test: Oxidative stress-induced cell death (TNF + H2O2), Hoechst staining; type: cell-based, human; settings: TNF 10 ng/ml + H2O2 1.6 μM
# Method: To test the effectiveness of the LAU-0900 series compounds as inhibitors of oxidative stress-induced cell death, human retinal pigment epithelial cells in culture (ARPE-19 cells, ATCC #CRL-2302) were used. ARPE-19 cells were cultured to confluence in DMEM-10% FBS medium (Gibco-BRL). The cells were then divided into 11 groups. Nine groups were exposed overnight to […] of a test compound selected from LAU-0901, LAU-0903, LAU-0904, LAU-0905, LAU-0906, LAU-0907, LAU-0908, LAU-0909, and LAU-0910. The other two groups were control groups, and were not exposed to any test chemical. In the nine groups and in one control group, oxidative stress was triggered by the addition of a combination of tumor necrosis factor (“TNF”; 10 ng/ml) and hydrogen peroxide (“H2O2”; 1.6 μM). The second control group was not treated with TNF and H2O2.
# The amount of Hoeschst staining was least in the group treated with LAU-0901, and most in the group treated with LAU-0910.
# [9] = 30 mg/kg 1 hr after reperfusion following 1 hr of MCA-O
# Chain of intracellular type PAF receptor (rat brain microsomal preparations) (P46002 whole entry): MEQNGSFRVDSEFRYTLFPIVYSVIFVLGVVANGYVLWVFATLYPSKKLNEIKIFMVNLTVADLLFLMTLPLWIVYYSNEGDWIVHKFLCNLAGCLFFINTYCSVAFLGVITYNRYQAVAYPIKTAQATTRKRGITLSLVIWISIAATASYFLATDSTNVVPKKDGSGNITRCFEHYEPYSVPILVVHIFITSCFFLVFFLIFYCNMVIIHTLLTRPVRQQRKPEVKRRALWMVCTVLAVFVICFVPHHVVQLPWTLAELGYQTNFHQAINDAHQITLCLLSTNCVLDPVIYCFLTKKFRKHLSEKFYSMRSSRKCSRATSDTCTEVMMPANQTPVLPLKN
# T1 sequence (P21556 whole entry): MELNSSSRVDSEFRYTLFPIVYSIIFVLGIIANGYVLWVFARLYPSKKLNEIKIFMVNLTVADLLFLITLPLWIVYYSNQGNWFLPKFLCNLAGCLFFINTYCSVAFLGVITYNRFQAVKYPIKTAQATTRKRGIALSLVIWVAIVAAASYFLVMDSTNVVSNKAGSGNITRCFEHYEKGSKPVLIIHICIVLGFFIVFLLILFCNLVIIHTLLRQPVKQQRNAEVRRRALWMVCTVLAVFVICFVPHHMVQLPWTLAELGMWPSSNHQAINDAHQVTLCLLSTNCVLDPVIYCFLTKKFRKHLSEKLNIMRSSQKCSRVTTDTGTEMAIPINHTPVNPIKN
structure (smiles),measurement,setting,value
CC(=O)Nc1ccc(O)cc1 [acetaminophen],LD50,[1],560 mg/kg
"CCCOc1ccc(SCCCOC(=O)C2=C(C)NC(C)=C(C(=O)OC)C2C)cc1 (centres unmarked) [LAU-0907, 2,4,6-Trimethyl-1,4-dihydro-pyridine-3,5-dicarboxylic acid 5-[3-(4-propoxyphenylsulfanyl)]-propyl-1-ester 3-methyl ester]",Inhibition of COX-2 transcription induced by IL-1β,human COX-2 promoter [2],inhibited
same,Inhibition of COX-2 transcription induced by PAF,human COX-2 promoter [3],inhibited
"CCCC(=O)c1ccc(OCCCOC(=O)C2=C(C)NC(C)=C(C(=O)OC)C2C)cc1 (centres unmarked) [LAU-0913, 2,4,6-Trimethyl-1,4-dihydro-pyridine-3,5-dicarboxylic acid 5-[3-(4-butyryl-phenoxy)-propyl]1-ester 3-methyl ester]",Inhibition of COX-2 transcription induced by IL-1β,human COX-2 promoter [2],inhibited
same,Inhibition of COX-2 transcription induced by PAF,human COX-2 promoter [3],inhibited
"CCCCCCCCCCCCCCCCOC[C@H](COP(=O)([O-])OCC[N+](C)(C)C)OC(C)=O [^3H-PAF, ^3H-platelet-activating factor, reference compound]",pKd,[4],9.82
same,pKd,[5]; high-affinity binding site (H),11.69
same,pKd,[5]; low-affinity binding site (L),7.52
same,Kd 3H-PAF,[6],No binding
COC(=O)C1=C(C)NC(C)=C(C(=O)OCCCOc2ccc(/C=C/C(C)=O)cc2)C1C (centres unmarked) [LAU-0908],Inhibition of COX-2 transcription induced by IL-1β,human COX-2 promoter [2],inhibited
same,Inhibition of COX-2 transcription induced by PAF,human COX-2 promoter [3],inhibited
"CC1=C(C(=O)OCCOc2ccc(Cl)c(Cl)c2)C(C)C(C(=O)OC(CN2CCOCC2)CN2CCOCC2)=C(C)N1 (centres unmarked) [LAU-0901, 2,4,6-Trimethyl-1,4-dihydro-pyridine-3,5-dicarboxylic acid 5-[2-(3,4-dichlorophenoxy)]ethyl ester 3-[1,3-di-(4-morpholinyl)-2-propyl-1-esterdihydrochloride]",Reduction of infarcted volume,[7]; [9],40%
same,Reduction of infarcted volume,"[7]; 30 mg/kg at the onset of MCA-O, 1 hr MCA-O, killed 24 hr later",40%
same,Reduction of infarcted volume,"[7]; 30 mg/kg intraperitoneally 1 h before MCA-O, 1 hr MCA-O, killed 24 hr after",55%
same,Lowest concentration inhibiting PAF-induced JNK,[8],≤ 10 nM
"CCCCOc1ccc(OCCCOC(=O)C2=C(C)NC(C)=C(C(=O)OC)C2C)cc1 (centres unmarked) [LAU-0910, 2,4,6-Trimethyl-1,4-dihydropyridine-3,5-dicarboxylic acid 3-[3-(4-butoxyphenoxy)propyl]ester 5-methyl ester]",Amount of Hoechst staining (cytoprotection),ARPE-19 cells,most
"COC(=O)C1=C(C)NC(C)=C(C(=O)OCCCSc2ccc(F)cc2)C1C (centres unmarked) [LAU-0904, 2,4,6-Trimethyl-1,4-dihydro-pyridine-3,5-dicarboxylic acid 5-[3-(4-fluorophenysulfanyl)]-propyl-1-ester 3-methyl ester]",Reduction of infarcted volume,[7]; [9],40%
